Structures can show the parent of a compound that is named as a salt.
molecular target: T1, IκBα-kinase complex (Homo sapiens, UniProt O14920+O15111); test: IkB-Kinase ELISA; assay type: biochemical; conditions: IkB-kinase IC50;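 further: substrate phosphopeptide captured on Protein-A plates, detected with Streptavidin-HRP and TMB absorbance at 450 nm, activity read from a synthetic phosphopeptide standard curve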
T1 construct: endogenous in cells; host or cells: HeLa S3 cell extract, S100 fraction; ammonium sulfate precipitation and Superose-6 size exclusion
T1 sequence (O14920 whole entry): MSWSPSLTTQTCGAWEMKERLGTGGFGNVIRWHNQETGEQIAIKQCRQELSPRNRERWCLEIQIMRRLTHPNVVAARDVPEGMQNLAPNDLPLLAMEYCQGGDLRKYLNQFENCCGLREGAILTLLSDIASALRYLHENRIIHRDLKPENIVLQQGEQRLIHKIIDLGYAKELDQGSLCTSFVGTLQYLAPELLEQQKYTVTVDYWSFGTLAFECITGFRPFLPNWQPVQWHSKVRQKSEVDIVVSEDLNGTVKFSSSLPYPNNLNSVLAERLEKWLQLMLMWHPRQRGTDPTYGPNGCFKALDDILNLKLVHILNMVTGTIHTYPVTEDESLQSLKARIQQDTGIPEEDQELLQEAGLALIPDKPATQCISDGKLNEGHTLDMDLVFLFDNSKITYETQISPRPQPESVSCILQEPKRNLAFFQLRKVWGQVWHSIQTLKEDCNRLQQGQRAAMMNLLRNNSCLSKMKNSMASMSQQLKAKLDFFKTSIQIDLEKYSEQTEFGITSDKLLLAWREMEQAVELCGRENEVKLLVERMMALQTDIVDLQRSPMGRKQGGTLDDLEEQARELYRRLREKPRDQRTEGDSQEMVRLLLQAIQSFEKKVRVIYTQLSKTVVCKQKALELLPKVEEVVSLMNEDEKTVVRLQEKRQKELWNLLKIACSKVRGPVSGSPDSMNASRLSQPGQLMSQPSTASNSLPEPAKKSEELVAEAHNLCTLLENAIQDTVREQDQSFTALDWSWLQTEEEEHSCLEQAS
T1 sequence (O15111 whole entry): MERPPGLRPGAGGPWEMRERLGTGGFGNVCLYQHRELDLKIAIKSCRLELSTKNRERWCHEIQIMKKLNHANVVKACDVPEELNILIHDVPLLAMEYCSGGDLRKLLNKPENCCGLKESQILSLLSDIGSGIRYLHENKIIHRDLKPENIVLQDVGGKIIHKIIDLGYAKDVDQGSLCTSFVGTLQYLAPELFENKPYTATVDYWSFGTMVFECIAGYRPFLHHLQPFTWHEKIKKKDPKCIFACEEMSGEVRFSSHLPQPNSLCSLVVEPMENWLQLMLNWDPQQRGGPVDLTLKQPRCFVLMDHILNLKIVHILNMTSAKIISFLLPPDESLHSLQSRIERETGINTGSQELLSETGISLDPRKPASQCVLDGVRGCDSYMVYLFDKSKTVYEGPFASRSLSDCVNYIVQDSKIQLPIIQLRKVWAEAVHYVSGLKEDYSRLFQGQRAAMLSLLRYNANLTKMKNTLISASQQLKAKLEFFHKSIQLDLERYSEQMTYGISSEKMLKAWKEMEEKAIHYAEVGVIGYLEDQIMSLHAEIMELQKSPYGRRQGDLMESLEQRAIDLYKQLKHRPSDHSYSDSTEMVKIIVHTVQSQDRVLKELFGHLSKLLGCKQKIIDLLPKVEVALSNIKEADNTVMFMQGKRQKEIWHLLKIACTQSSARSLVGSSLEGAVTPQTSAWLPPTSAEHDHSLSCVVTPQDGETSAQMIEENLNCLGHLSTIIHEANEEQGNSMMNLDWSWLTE
T1 sequence (Q9Y6K9 whole entry partner): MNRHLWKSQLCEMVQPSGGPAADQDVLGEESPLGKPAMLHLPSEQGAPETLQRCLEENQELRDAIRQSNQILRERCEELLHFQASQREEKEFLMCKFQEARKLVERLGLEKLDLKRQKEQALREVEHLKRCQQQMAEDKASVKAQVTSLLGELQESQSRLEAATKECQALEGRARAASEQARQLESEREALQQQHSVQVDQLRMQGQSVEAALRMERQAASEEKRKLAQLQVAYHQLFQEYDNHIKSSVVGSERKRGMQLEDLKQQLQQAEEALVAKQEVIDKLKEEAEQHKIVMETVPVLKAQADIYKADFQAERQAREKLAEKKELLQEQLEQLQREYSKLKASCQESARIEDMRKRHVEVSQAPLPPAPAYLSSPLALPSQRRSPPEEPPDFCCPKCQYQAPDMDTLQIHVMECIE

Question: For Clc1cc2c([nH]c3cnccc32)c(Cl)c1OCC1CCCCC1 [Example 96], which IC50 is on record?
Answer: 1.3 µM

same assay, conditions: IkB-kinase, unit inferred; read-out: IC50

Question: For Nc1ccc(C(=O)Nc2cc(Cl)cc3c2[nH]c2cnccc23)cn1 [Example 121], which IC50 is on record?
Answer: 1.7 µM

same assay, conditions: activated IκBα kinase complex from HeLa S3 cell extracts; ELISA; read-out: IkB-kinase IC50

Question: With O=C(Nc1cc(Cl)cc2c1[nH]c1cnccc12)c1ccc(F)cc1 [Example 49, trifluoroacetate] as the compound, how does the IC50 read?
Answer: 0.22 µM

Question: With O=C(Nc1cc(Cl)cc2c1[nH]c1cnccc12)c1ccccc1F [Example 62] as the compound, how does the IC50 read?
Answer: 0.38 µM

Question: Which IC50 does the source give for COc1cc2[nH]c3cnccc3c2cc1[N+](=O)[O-] [Example 63] here?
Answer: 1.3 µM

Question: Which IC50 does the source give for Clc1cc2c([nH]c3cnccc32)c(Cl)c1OCC1CC1 [Example 64] here?
Answer: 0.11 µM

Question: For Clc1cc2c([nH]c3cnccc32)c(Cl)c1OCC1CC1 [Example 65], which IC50 is on record?
Answer: 0.1 µM

Question: With COc1cc2[nH]c3cnccc3c2cc1Cl [Example 66] as the compound, how does the IC50 read?
Answer: 0.7 µM

Question: With COc1c(Cl)cc2c([nH]c3cnccc32)c1N [Example 67] as the compound, how does the IC50 read?
Answer: 0.5 µM

Question: COc1c(Cl)cc2c([nH]c3cnccc32)c1NC(=O)c1cccnc1 [Example 68, N-(6-Chloro-7-methoxy-9H-β-carbolin-8-yl)-nicotinamide] was tested. Which IC50 did it give?
Answer: 0.16 µM

Question: O=C(c1cccnc1)N1CCn2c3cnccc3c3cc(Cl)cc1c32 [Example 69] was tested. Which IC50 did it give?
Answer: 3 µM

Question: How did the IC50 turn out when COCOc1c(Cl)cc2c([nH]c3cnccc32)c1Cl [Example 70] was run?
Answer: 0.36 µM

Question: How did the IC50 turn out when COc1ccc(C(=O)Nc2cc(Cl)cc3c2[nH]c2cnccc23)cc1OC [Example 71] was run?
Answer: 3 µM

Question: Which IC50 does the source give for N#Cc1cccc(C(=O)Nc2cc(Cl)cc3c2[nH]c2cnccc23)c1 [Example 72] here?
Answer: 0.58 µM

Question: N#Cc1ccc(C(=O)Nc2cc(Cl)cc3c2[nH]c2cnccc23)cc1 [Example 73] was tested. Which IC50 did it give?
Answer: 0.4 µM

Question: With O=C(Nc1cc(Cl)cc2c1[nH]c1cnccc12)c1ccc(C(F)(F)F)cc1 [Example 74] as the compound, how does the IC50 read?
Answer: 3.8 µM

Question: O=C(Nc1cc(Cl)cc2c1[nH]c1cnccc12)c1ccco1 [Example 75] was tested. Which IC50 did it give?
Answer: 0.29 µM

Question: For O=C(Nc1cc(Cl)cc2c1[nH]c1cnccc12)c1cccs1 [Example 76], which IC50 is on record?
Answer: 0.9 µM

Question: Which IC50 does the source give for Cc1oc(C(F)(F)F)cc1C(=O)Nc1cc(Cl)cc2c1[nH]c1cnccc12 [Example 77] here?
Answer: 4.4 µM

Question: Cn1nc(C(C)(C)C)cc1C(=O)Nc1cc(Cl)cc2c1[nH]c1cnccc12 [Example 78] was tested. Which IC50 did it give?
Answer: 2.3 µM

Question: For O=C(Nc1cc(Cl)cc2c1[nH]c1cnccc12)c1ccno1 [Example 79], which IC50 is on record?
Answer: 0.18 µM

Question: Which IC50 does the source give for Cc1cc(C(=O)Nc2cc(Cl)cc3c2[nH]c2cnccc23)no1 [Example 80] here?
Answer: 0.31 µM

Question: With Clc1cc2c([nH]c3cnccc32)c(Cl)c1OCc1ccccc1 [Example 81] as the compound, how does the IC50 read?
Answer: 0.25 µM

Question: How did the IC50 turn out when O=C(Nc1cc(Cl)cc2c1[nH]c1cnccc12)c1ccc(F)c(F)c1 [Example 82, N-(6-Chloro-9H-β-carbolin-8-yl)-3,4-difluoro-benzamide] was run?
Answer: 0.15 µM

Question: How did the IC50 turn out when O=C(Nc1cc(Cl)cc2c1[nH]c1cnccc12)c1ccc(Cl)nc1 [Example 83, 6-Chloro-N-(6-chloro-9H-β-carbolin-8-yl)-nicotinamide] was run?
Answer: 0.06 µM

Question: For CC(C)Oc1c(Cl)cc2c([nH]c3cnccc32)c1Cl [Example 84], which IC50 is on record?
Answer: 0.1 µM

Question: CC(C)COc1c(Cl)cc2c([nH]c3cnccc32)c1Cl [Example 85] was tested. Which IC50 did it give?
Answer: 0.2 µM

Question: With O=C(Cc1cccs1)Nc1cc(Cl)cc2c1[nH]c1cnccc12 [Example 86] as the compound, how does the IC50 read?
Answer: 0.7 µM

Question: With O=C(Nc1cc(Cl)cc2c1[nH]c1cnccc12)c1ccccn1 [Example 87] as the compound, how does the IC50 read?
Answer: 0.75 µM

Question: With O=C(Nc1cc(Cl)cc2c1[nH]c1cnccc12)c1cnccn1 [Example 88] as the compound, how does the IC50 read?
Answer: 0.28 µM

Question: For O=C(Nc1cc(Cl)cc2c1[nH]c1cnccc12)c1ccc2c(c1)OCO2 [Example 89], which IC50 is on record?
Answer: 0.57 µM

Question: Which IC50 does the source give for O=C(COCc1ccccc1)Nc1cc(Cl)cc2c1[nH]c1cnccc12 [Example 90] here?
Answer: 1.4 µM

Question: Which IC50 does the source give for O=C1COc2c(Cl)cc3c([nH]c4cnccc43)c2N1 [Example 91] here?
Answer: 2.3 µM

Question: How did the IC50 turn out when Clc1cc2c([nH]c3cnccc32)c(Cl)c1OC1CCCC1 [Example 92] was run?
Answer: 0.4 µM

Question: For CCN(CC)CCOc1c(Cl)cc2c([nH]c3cnccc32)c1Cl [Example 93], which IC50 is on record?
Answer: 1.3 µM

Question: For COc1c([N+](=O)[O-])cc2c([nH]c3cnccc32)c1Cl [Example 94], which IC50 is on record?
Answer: 0.64 µM

Question: Which IC50 does the source give for COc1c(N)cc2c([nH]c3cnccc32)c1Cl [Example 95] here?
Answer: 1 µM

Question: For O=C(Cc1cccnc1)Nc1cc(Cl)cc2c1[nH]c1cnccc12 [Example 97], which IC50 is on record?
Answer: 0.69 µM

Question: With CN(C)CC(=O)Nc1cc(Cl)cc2c1[nH]c1cnccc12 [Example 98] as the compound, how does the IC50 read?
Answer: 0.9 µM

Question: For O=C1CC[C@H](C(=O)Nc2cc(Cl)cc3c2[nH]c2cnccc23)N1 [Example 99], which IC50 is on record?
Answer: 0.09 µM

Question: O=C(COc1ccccc1)Nc1cc(Cl)cc2c1[nH]c1cnccc12 [Example 100] was tested. Which IC50 did it give?
Answer: 1.5 µM

Question: CC(=O)Oc1c(Cl)cc2c([nH]c3cnccc32)c1Cl [Example 101] was tested. Which IC50 did it give?
Answer: 1.8 µM

Question: How did the IC50 turn out when O=C1CC[C@@H](C(=O)Nc2cc(Cl)cc3c2[nH]c2cnccc23)N1 [Example 103] was run?
Answer: 0.31 µM

Question: For O=C(Nc1cc(Cl)cc2c1[nH]c1cnccc12)c1cccnc1O [Example 104], which IC50 is on record?
Answer: 1 µM

Question: Which IC50 does the source give for Cc1cc(C(=O)Nc2cc(Cl)cc3c2[nH]c2cnccc23)n(C)n1 [Example 106] here?
Answer: 0.6 µM

Question: For CC(C)(C)c1cc(C(=O)Nc2cc(Cl)cc3c2[nH]c2cnccc23)n(Cc2ccccc2)n1 [Example 107], which IC50 is on record?
Answer: 0.4 µM

Question: O=C(Cc1ccccn1)Nc1cc(Cl)cc2c1[nH]c1cnccc12 [Example 108] was tested. Which IC50 did it give?
Answer: 2.1 µM

Question: With O=C(Nc1cc(Cl)cc2c1[nH]c1cnccc12)c1cccc(=O)[nH]1 [Example 109] as the compound, how does the IC50 read?
Answer: 2.1 µM

Question: With O=C1CC[C@H](C(=O)Nc2cc(Cl)cc3c2[nH]c2cnccc23)O1 [Example 111] as the compound, how does the IC50 read?
Answer: 0.54 µM

Question: With O=S(=O)(Nc1cc(Cl)cc2c1[nH]c1cnccc12)c1ccc(F)cc1 [Example 112] as the compound, how does the IC50 read?
Answer: 0.93 µM

Question: Which IC50 does the source give for O=C(Nc1cc(Cl)cc2c1[nH]c1cnccc12)c1ccc(Br)cc1 [Example 113] here?
Answer: 0.64 µM

Question: COc1c(Cl)cc2c([nH]c3cnccc32)c1NC(=O)c1ccc(F)cc1 [Example 114] was tested. Which IC50 did it give?
Answer: 2.1 µM

Question: How did the IC50 turn out when O=C(Nc1c(O)c(Cl)cc2c1[nH]c1cnccc12)c1cccnc1 [Example 115] was run?
Answer: 4.6 µM

Question: How did the IC50 turn out when O=C(Nc1cc(Cl)cc2c1[nH]c1cnccc12)c1ccc(Cl)cc1 [Example 116] was run?
Answer: 1.8 µM

Question: How did the IC50 turn out when O=C(Nc1cc(Cl)cc2c1[nH]c1cnccc12)C1CCCC1 [Example 117] was run?
Answer: 0.67 µM

Question: For COc1c(Cl)cc2c([nH]c3cnccc32)c1NC(=O)c1ccc(Cl)nc1 [Example 118], which IC50 is on record?
Answer: 0.12 µM

Question: How did the IC50 turn out when COc1c(Cl)cc2c([nH]c3cnccc32)c1NC(=O)c1ccno1 [Example 119] was run?
Answer: 0.6 µM

Question: For COc1c(Cl)cc2c([nH]c3cnccc32)c1NC(=O)c1ccc(F)c(F)c1 [Example 120], which IC50 is on record?
Answer: 0.4 µM

test system: cardiac allograft (BALB/c->C57BL/6 or B6/129); test: Mouse heterotopic cardiac transplant model; assay type: in vivo; conditions: oral, 25 mg/kg/day for 14 days, starting at transplantation; mean±SD
Text: Mouse Heterotopic Cardiac Transplant Model
In the mouse heterotopic cardiac transplant model across full histocompatibility barriers (BALB/c->C57BL/6 or B6/129), graft survival is typically limited to 7.3±0.4 days (mean±SD, n0 allografts) (see for example in Hancock W W, Sayegh M H, Zheng X G, Peach R, Linsley P S, Turka L A. Costimulatory function and expression of CD40-ligand, CD80 and CD86 or in vascularized murine cardiac allograft rejection. Proc Natl Acad Sci (USA) 93, 1996, 13967-13972; and Hancock W W, Buelow R, Sayegh M H, Turka L A. Antibody-induced transplant arteriosclerosis is prevented by graft expression of anti-oxidant and anti-apoptotic genes. Nature Med 4, 1998, 1392-1396).
The effects of oral administration of the compounds according to examples 49 and 60 were tested using 25 mg/kg/day for 14 days, starting at transplantation in said animal model. Whereas grafts in animals receiving the carrier, methyl-cellulose, rejected by 7 days (6.7±0.8), grafts in compound 49-treated mice survived around 15 days (15.3±0.6), and grafts in those given compound 60 survived for 20 days (20±1). Current immunosuppressive therapies used in transplantation have limited efficacy and/or considerable toxicity.

Question: How did the graft survival turn out when O=C(Nc1cc(Cl)cc2c1[nH]c1cnccc12)c1ccc(F)cc1 [Example 49, trifluoroacetate] was run?
Answer: 15.3 ± 0.6 days
